Assay results reported in PMC11853379, “Glioblastoma Cell Migration, Invasion and Vasculogenic Mimicry Downmodulated by Novel uPAcyclin Derivatives” (Cells, 2025).
Positions of bridges follow the written chain, without caps; N, C: chain ends. Residues, ends and D or L forms follow the SMILES beside them.

Experiments:
U87-MG cells [1] = assay: F-actin cytoskeletal rearrangement, rhodamine-phalloidin staining; format: cell-based, human; conditions: 100 nM peptide pre-incubated 40 min 37 °C, then 5% FBS 3 h
Experimental: The U87-MG cells were analyzed for their cytoskeletal organization upon exposure to the indicated peptides. Briefly, 2 × 10^5 cells/sample were harvested via mild trypsinization, pre-treated for 40 min at 37 °C with 100 nM of selected peptides, and incubated with 5% FBS for 3 h at 37 °C. Samples diluted in a serum-free medium were included as negative controls. Then cells were fixed, permeabilized, and stained with 0.1 μg/mL rhodamine–phalloidin (Sigma-Merck, St. Louis, MO, USA) for 40 min at rt. To stain nuclei, the slides were incubated with 20 ng/mL DAPI (4′,6-Diamidino-2- phenylindole, Sigma-Merck, St. Louis, MO, USA) for 10 min at rt, mounted with Mowiol Mounting Medium (Sigma-Merck, St. Louis, MO, USA), and examined with the DMI6000 Leica Inverted Fluorescence Microscope ([…], Milan, Italy) at 40× magnification. At least 4 fields/samples were acquired, and the total fluorescence was measured with ImageJ.
Figure 5 Representative images of U87-MG cytoskeletal rearrangements. […] F-actin was detected via staining with rhodamine–phalloidin, as specified in the Methods section, using the Leica DMI 6000 Inverted Microscope at 40× magnification. […] In the histogram, the results are expressed as a percentage of total fluorescence intensity in the absence of FBS and peptide (no peptide); ** p-value < 0.005, * p ≤ 0.05.

U87-MG cells [2] = format: cell-based, human
Experimental: The migration and invasion assays were performed with Boyden chambers, according to De Vincenzo et al., using 11 × 10^4 U87-MG and U251-MG glioblastoma cells/sample pre-treated for 40 min at 37 °C with the indicated effectors and then allowed to migrate for 3 h or to invade for 5 h at 37 °C toward 5% FBS in DMEM/0.1% BSA. The migrated or invaded cells were reported as a percentage of basal random migration or invasion and analyzed as reported in the Statistical Analyses section. The migration and invasion experiments were conducted in triplicate.
(§1) Figure 1 Binding of Ala peptides to U87-MG cells and effect of uPAcyclin and Ala peptides on U87-MG cellular migration. (A) A total of 2 × 10^6 U87-MG cells were pre-incubated for 30 min at 4 °C with increasing concentrations of unlabeled uPAcyclin and Ala peptides and then exposed to 50 nM of FITC-uPAcyclin for 2 h at 4 °C. Cell surface-associated fluorescence, as percentage of the sample with […], is shown. Experiments were carried out in duplicate, and the data shown here are representative of three independent experiments. (B) 11 × 10^4 U87-MG cells/sample were pre-treated for 40 min at 37 °C with increasing concentrations of uPAcyclin or the indicated Ala peptides and then assayed in Boyden chambers for 5% FBS-dependent migration for 3 h at 37 °C. At the end of incubation, the filters were processed as described in the Methods section. For clarity here and in the following Figures, Ala-x indicates the peptide with substituted x-position. For both assays, the p-values are in the range of 0.005 ≤ p ≤ 0.001, apart from [Ala1]uPAcyclin in the migration assay with p ≤ 0.05.
Alterations of the amino acid sequence may affect the peptide structure and may, in turn, alter its function. To test for differences in the inhibitory activity of the Ala-substituted peptides, U87-MG glioblastoma cells were subjected to a directional migration assay in Boyden chambers towards FBS, in the presence or in the absence of the indicated concentrations of uPAcyclin or one of its Ala-scan derivatives (Figure 1B).

[3] = target: T1, integrin αV receptors on the GBM cell surface (U87-MG cells) (Homo sapiens, UniProt P06756); assay: Receptor binding assay: displacement of FITC-uPAcyclin from U87-MG living cells
T1 construct: endogenous in cells; host or cells: U87-MG human glioblastoma cells (living, acid-treated, 4 °C)
T1 sequence (P06756 31-889 limits assumed): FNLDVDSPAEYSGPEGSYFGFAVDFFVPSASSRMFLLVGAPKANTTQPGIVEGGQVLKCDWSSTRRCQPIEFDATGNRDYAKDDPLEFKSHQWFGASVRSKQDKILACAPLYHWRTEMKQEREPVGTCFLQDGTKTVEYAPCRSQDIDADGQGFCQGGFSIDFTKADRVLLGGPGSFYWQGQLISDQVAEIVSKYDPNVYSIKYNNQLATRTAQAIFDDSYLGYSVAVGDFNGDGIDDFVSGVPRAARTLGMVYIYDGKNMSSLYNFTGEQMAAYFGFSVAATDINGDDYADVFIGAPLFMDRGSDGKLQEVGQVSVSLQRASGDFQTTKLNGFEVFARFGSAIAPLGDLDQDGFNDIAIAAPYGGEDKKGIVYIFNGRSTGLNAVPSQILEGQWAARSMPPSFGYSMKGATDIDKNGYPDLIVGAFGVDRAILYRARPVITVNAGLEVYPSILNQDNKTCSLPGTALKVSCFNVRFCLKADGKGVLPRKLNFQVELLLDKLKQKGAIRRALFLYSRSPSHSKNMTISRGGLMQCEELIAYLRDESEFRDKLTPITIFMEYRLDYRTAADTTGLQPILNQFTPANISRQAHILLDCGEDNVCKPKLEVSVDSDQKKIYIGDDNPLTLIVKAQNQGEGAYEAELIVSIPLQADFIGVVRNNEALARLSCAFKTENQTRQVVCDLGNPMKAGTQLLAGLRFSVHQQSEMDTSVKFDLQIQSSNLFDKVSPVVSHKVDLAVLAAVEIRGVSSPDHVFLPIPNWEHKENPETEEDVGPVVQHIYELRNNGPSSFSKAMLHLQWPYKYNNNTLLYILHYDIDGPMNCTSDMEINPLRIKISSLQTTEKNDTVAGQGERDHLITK
T1 sequence (P06756 891-1048 limits assumed): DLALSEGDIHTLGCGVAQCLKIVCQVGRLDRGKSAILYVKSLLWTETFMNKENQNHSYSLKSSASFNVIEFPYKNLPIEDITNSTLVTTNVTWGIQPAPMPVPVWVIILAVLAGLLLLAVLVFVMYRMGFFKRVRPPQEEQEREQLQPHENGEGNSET
Experimental: The U87-MG and U251-MG cell lines were harvested and acid-treated, as described. Briefly, 2 × 10^6 cells/sample were pre-incubated for 30 min at 4 °C with uPAcyclin and Ala peptides and subsequently exposed to 50 nM FITC-uPAcyclin for 2 h at 4 °C, as described. The experiments were performed three times, with duplicate samples, and analyzed as reported in the statistical analysis.
This assay confirmed that FITC-uPAcyclin binds specifically to both GBM cell lines and to the HEK-293/αV, whereas little interaction is detected with HEK-293 cells (Supporting Information, Table S7). […] To investigate the ability of novel Ala-scan peptides to compete with uPAcyclin for binding to integrin αV receptors on the GBM cell surface, the specific interaction of FITC-conjugated uPAcyclin with U87-MG living cells was tested via a receptor binding assay. U87-MG GBM cells were pre-incubated with increasing concentrations of unlabeled Ala peptides and then exposed to FITC-uPAcyclin (Figure 1A). […] When considering the relative Kdapp of uPAcyclin variants, it can be inferred that the replacement either of each of the three prolines (Pro^2, Pro^5, Pro^6) or Lys^1 increases the binding affinity of the resulting peptide compared to uPAcyclin. In contrast, the Ala mutation of other residues is detrimental to the peptide binding affinity.
as §1

SMILES | reduction in total F-actin fluorescence (inhibition of cytoskeletal rearrangements) (U87-MG cells [1]) [%] | IC50 of migration lower / inhibitory activity higher than parental uPAcyclin (U87-MG cells [2]; U87-MG migration) [fold] | inhibitory activity on cell migration, comparison (in words) (U87-MG cells [2]; U87-MG migration toward 5% FBS) | IC50 of migration lower than the single variants (U87-MG cells [2]; U87-MG migration, versus [Ala^2]uPAcyclin and [Ala^5]uPAcyclin) | migration reduced to (percentage of basal random migration) (U87-MG cells [2]; U87-MG, 5% FBS, concentration not given) | binding affinity compared to uPAcyclin (in words) ([3]; displacement of FITC-uPAcyclin, U87-MG cells) | Kd ([3]; competition with 50 nM FITC-uPAcyclin, 2 × 10^6 U87-MG cells, pre-incubation 30 min 4 °C, then 2 h 4 °C, three experiments in duplicate, read-out: Kdapp) [nM] | concentration at which dose-dependent inhibitory activity starts (U87-MG cells [2]; U87-MG migration toward 5% FBS) [pM] | effect on FBS-induced directional migration (in words) (U87-MG cells [2]; U87-MG, 1 µM peptide)
CC(=O)N[C@@H](CCCCN)C(=O)N[C@@H](C)C(=O)N[C@H]1CCC(=O)NCCCC[C@@H](C(N)=O)NC(=O)[C@H](CC(C)C)NC(=O)[C@H](CCC(=O)O)NC(=O)[C@H](CCC(=O)O)NC(=O)[C@@H]2CCCN2C(=O)[C@H](C)NC(=O)[C@H](CO)NC1=O [[Ala^2,Ala^5]uPAcyclin] (Ac-KAESAPEELK-NH2; lactam 3-10) | 50 | ~100 | most potent peptide of the series | about 10 fold | about 70% |  |  |  | 
CC(=O)N[C@@H](CCCCN)C(=O)N1CCC[C@H]1C(=O)N[C@H]1CCC(=O)NCCCC[C@@H](C(N)=O)NC(=O)[C@H](CC(C)C)NC(=O)[C@H](C)NC(=O)[C@H](CCC(=O)O)NC(=O)[C@@H]2CCCN2C(=O)[C@@H]2CCCN2C(=O)[C@H](CO)NC1=O [[Ala^8]uPAcyclin] (Ac-KPESPPEALK-NH2; lactam 3-10) |  |  |  |  |  | reduced affinity |  |  | 
CC(=O)N[C@@H](CCCCN)C(=O)N1CCC[C@H]1C(=O)N[C@H]1CCC(=O)NCCCC[C@@H](C(N)=O)NC(=O)[C@H](CC(C)C)NC(=O)[C@H](CCC(=O)O)NC(=O)[C@H](CCC(=O)O)NC(=O)[C@@H]2CCCN2C(=O)[C@@H]2CCCN2C(=O)[C@H](CO)NC1=O [uPAcyclin] (Ac-KPESPPEELK-NH2; lactam 3-10) | 35 |  |  |  |  |  | ~0.1 | 1 | abolishes FBS-induced directional migration
